Experimental data reported in patent US8835498B2, “Anti-wrinkle agents” (Pola Chemical Industries Inc., priority 2008, dated 2014).

System: hairless mice
Experiment: Evaluation of wrinkle-reducing effect using photoaging model (UVB-irradiated hairless mice, replica wrinkle score)
Format: in vivo
Details: 0.5% by mass in ethanol (lotion), 100 μL once a day for 8 weeks on dorsal portions after 10 weeks of UVB irradiation; replicas scored visually 1 to 6; vs ethanol control
Experimental: A wrinkle-reducing effect of Cosmetic 1 above was evaluated in a test using a photoaging model.
A total of ten hairless mice, which were six-week-old at the time of the start of a test, were used and divided into two groups each consisting of five mice, i.e., a control group (ethanol solvent administration group) and a sample administration group. The dorsal portions of the hairless mice were irradiated with UVB at a frequency of once a day and three times a week for 10 consecutive weeks to induce photoaging. The UVB irradiation amount was set to 50 mJ/cm^2 for the first week and to 100 mJ/cm^2 on week 2 or later.
In the sample administration group, Cosmetic 1 above was administered to the dorsal portions of the hairless mice. Cosmetic 1 started to be administered to the dorsal portions of the hairless mice on the following day after the completion of the UVB irradiation for 10 weeks, and administered at a dose of 100 μL once a day for 8 weeks. In the control group, the same treatments were performed as those in sample administration group except that ethanol was administered in place of Cosmetic 1 (Lotion 1) in Table 1. […] The scoring operation was performed by three measurers separately and evaluated visually with scores of 1 to 6 at intervals of 0.5. An average value of the results was calculated.

CSCC(NC(=O)c1ccc(C)cc1)C(=O)O (stereo not shown) [Compound 2, [S-methyl-N-toluyl]cysteine]
wrinkle-reducing effect (wrinkle score): excellent wrinkle-reducing effects
